# Data published in PMC10726355, “Small Molecule Ligands of the BET-like Bromodomain, SmBRD3, Affect Schistosoma mansoni Survival, Oviposition, and Development” (Journal of Medicinal Chemistry, 2023).
# Assays:
# [1] = target: SmBRD3(1,2) (Schistosoma mansoni, UniProt A0A5K4ESD7); experiment: biochemical; format: binding; conditions: for Kd: ITC
# [2] = target: T1, SmBRD3(2) (Schistosoma mansoni, UniProt A0A5K4ESD7); experiment: biochemical; format: binding
# [3] = target: T1, SmBRD3(2); experiment: Differential scanning fluorimetry (thermal shift), SmBRD3(2); format: binding; conditions: DSF; 50 μM compound
# Protocol: Reported ΔTm values are the mean of two replicates.
# Differential scanning fluorimetry assay
# The differential scanning fluorimetry (DSF) or thermal stability assays were carried out following the protocol described by Niesen et al. and data were analysed as described previously.8 Thermal melting experiments were carried out using the Mx3005p real-time PCR machine (Agilent) and employing a protein concentration of 5 μM for the schistosomal bromodomains [SmBRD3(2), […]
# the DMSO content was 0.5% (v/v). Buffer conditions were 50 mM HEPES buffer, pH 7.5, 500 mM NaCl and a 1:500 dilution of SYPRO® Orange (Invitrogen, CA) was used. The 96-well PCR plates were sealed and centrifuged for 2 min at 1000 rpm at 25 °C before measurement. The temperature was raised with a step of 1 °C per 30 s from 25 °C to 85 °C, and fluorescence readings were taken at each interval. […]
# Isothermal titration calorimetry experiments were performed on a MicroCal PEAQ-ITC Automated or Manual (Malvern) and analysed with the MicroCal PEAQ-ITC Analysis software (Malvern 1.1.0.1262) using a single binding site model. […]
# Male adult schistosomes were seeded into 24-well tissue culture plates (5 worms/well), dosed with compounds (20 µM in 0.2% DMSO v/v) and incubated for 24 h at 37 °C in 5% CO2. […] When ready for processing, worms were removed from the −80 °C and subject to 3 rounds of repeated snap freeze:thawing. […]
# [4] = tested on: SmBRD3(1,2); experiment: Differential scanning fluorimetry (thermal shift), SmBRD3(1,2); conditions: DSF; 50 μM compound
# Protocol: difference between the transition midpoints of sample and reference wells containing protein without inhibitor in the same plate. Reported ΔTm values are the mean of two replicates.
# Isothermal titration calorimetry experiments were performed on a MicroCal PEAQ-ITC Automated or Manual (Malvern) and analysed with the MicroCal PEAQ-ITC Analysis software (Malvern 1.1.0.1262) using a single binding site model. For each experiment, the first data point was removed from the analysis. The proteins were dialysed at 4 °C overnight in a Slide-A-LyzerR MINI Dialysis Device (2000 MWCO; Thermo Scientific Life Technologies) into 50 mM HEPES, 150 mM NaCl containing 0.2% DMSO; pH 7.4. Proteins were centrifuged to remove aggregates (3 min, 3000 rpm, 25 °C).
# Compounds were dissolved as a DMSO stock solution and diluted to the required concentration using dialysis buffer (DMSO free) and to a final DMSO concentration of 0.2% (unless otherwise specified). The cell was stirred at 750 rpm, reference power set to 5 μcal/s and temperature held at 25 °C. After an initial delay of 60 s, 19 x 2 μL injections (first injection 0.4 μL) were performed with a spacing of 180 s. […]
# Sequence of SmBRD3(1,2) (Schistosoma mansoni, UniProt A0A5K4ESD7) (A0A5K4ESD7 entry or part of it): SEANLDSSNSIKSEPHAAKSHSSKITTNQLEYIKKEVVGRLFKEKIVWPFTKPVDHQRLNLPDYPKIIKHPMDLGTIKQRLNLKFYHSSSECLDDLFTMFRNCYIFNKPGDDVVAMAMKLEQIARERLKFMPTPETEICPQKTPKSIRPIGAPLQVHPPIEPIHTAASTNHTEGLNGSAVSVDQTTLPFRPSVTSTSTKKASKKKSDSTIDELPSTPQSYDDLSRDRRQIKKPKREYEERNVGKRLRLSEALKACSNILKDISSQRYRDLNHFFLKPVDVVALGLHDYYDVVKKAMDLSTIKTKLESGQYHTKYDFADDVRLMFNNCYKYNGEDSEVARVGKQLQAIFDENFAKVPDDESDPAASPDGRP
# T1 sequence (A0A5K4ESD7 entry or part of it): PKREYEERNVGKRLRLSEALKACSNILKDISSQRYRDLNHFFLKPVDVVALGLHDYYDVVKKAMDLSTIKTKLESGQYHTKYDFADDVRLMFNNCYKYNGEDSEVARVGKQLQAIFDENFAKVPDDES
compound,measurement,setting,value
"CC(=O)N1c2ccc(-c3ccc(C(=O)O)cc3)cc2[C@H](Nc2ccc(Cl)cc2)C[C@@H]1C [I-BET726 (8), I-BET726, reference compound]","N number, binding to SmBRD3(1,2)","[1]; ITC stoichiometry, n=1 ± error of curve fit",1.66 ± 6.7e-2
same,Kd,"[1]; SmBRD3(1,2) Kd, n = 1 ± error of the curve fit",1.52 ± 0.52 µM
same,Kd,"[1]; SmBRD3(1,2) pKd",1.58 µM
same,"N number, binding to SmBRD3(2), Repeat 1","[2]; ITC stoichiometry, Repeat 1",1.12 ± 4.2e-2
same,"N number, binding to SmBRD3(2), Mean","[2]; ITC stoichiometry, mean of repeats",1.12 ± 4.2e-2
same,Kd,"[2]; SmBRD3(2) Kd, ITC, single value ± error of the curve fit or mean of 2-3 repeats ± s.e.m.",1.85 ± 0.361 µM
same,Kd,"[2]; SmBRD3(2) Kd, Repeat 1, ITC, single run ± error of curve fit, Repeat 1",1.85 ± 0.361 µM
same,Kd,"[2]; SmBRD3(2) pKd, ITC",2 µM
same,Thermal stabilisation (ΔTm) of SmBRD3(2),[3],"stabilize both SmBRD3(1,2) and SmBRD3(2)"
same,"Thermal stabilisation (ΔTm) of SmBRD3(1,2)",[4],"stabilize both SmBRD3(1,2) and SmBRD3(2)"
